Test results as given in patent US20190160131A1, “METHOD FOR CELL REJUVENATION USING ROSA ROXBURGHII FRUIT EXTRACTS” (TCI CO., LTD, priority 2017, published 2019).

System: human skin fibroblast CCD-966SK
Assay: Chemical (etoposide)-induced telomere shortening, telomere length by qPCR
Format: cell-based
Conditions: 30 μM etoposide only, 5 days of incubation, compared to control cells (FIG. 8)
Method: Telomere length is determined based on qPCR technique. First, genomic DNA samples were extracted from cells. Next, the genomic DNA samples (20 ng) were subjected to qPCR to obtain melting curves. The qPCR was performed with a PCR thermocycler using KAPA CYBR FAST qPCR Kit (2×) (KAPA Biosystems) and primers of the telomere and the single-copy 36B4 gene (Table 2). In addition, serially diluted standards of the telomere (10- to 10^6-fold dilutions starting from 60 pg) and the 36B4 gene (10- to 10^6-fold dilutions starting from 200 pg) were prepared and subjected to qPCR under the following reaction conditions to obtain standard curves (Ct/kb): a denaturation phase at 95° C. for 10 minutes followed by 40 cycles of denaturation (95° C.) for 15 seconds and annealing (60° C.) for 1 minute. The telomere standard was an oligonucleotide having 14 repeats of TTAGGG (SEQ ID NO: 7); the standard of 36B4 gene had the nucleotide sequence of SEQ ID NO:8. Lastly, the average length of telomere in the genomic DNA samples was determined from the aforementioned standard curves and the cycle threshold values of telomere and 36B4 gene in the genomic DNA samples.
The protective effect of Rosa roxburghii fruit water extract on chromosomal telomere was investigated in human skin fibroblast CCD-966SK. […]

COc1cc([C@@H]2c3cc4c(cc3[C@@H](O[C@@H]3O[C@@H]5CO[C@@H](C)O[C@H]5[C@H](O)[C@H]3O)[C@H]3COC(=O)[C@H]23)OCO4)cc(OC)c1O [etoposide] was tested, and the “relative length of telomeres” value was “significantly shortened”.
